Literature values, collected in US20150209375A1, “POSOLOGY AND ADMINISTRATION OF GLUCOCORTICOID BASED COMPOSITIONS” (DuoCort Pharma AB, priority 2010, published 2015).

Settings: Lennernäs et al 2008

## C[C@]12CCC(=O)C=C1CC[C@@H]1[C@@H]2[C@@H](O)C[C@@]2(C)[C@H]1CC[C@]2(O)C(=O)CO [Hydrocortisone]
Amidon et al 1995
  BCS class: BCS class II
  extraction: low extraction drug
